Experimental data as given in ChEMBL document CHEMBL1177736, “Isopropylidene substitution increases activity and selectivity of biphenylmethylene 4-pyridine type CYP17 inhibitors” (J Med Chem, 2010).
pIC50: −log10 of the molar value.

How the values were obtained:
[1] = target: T1, Cytochrome P450 11B1, mitochondrial (Homo sapiens, UniProt P15538); experiment: Inhibition of human CYP11B1 expressed in hamster V79MZh cells; format: cell-based
T1 sequence (P15538 whole entry): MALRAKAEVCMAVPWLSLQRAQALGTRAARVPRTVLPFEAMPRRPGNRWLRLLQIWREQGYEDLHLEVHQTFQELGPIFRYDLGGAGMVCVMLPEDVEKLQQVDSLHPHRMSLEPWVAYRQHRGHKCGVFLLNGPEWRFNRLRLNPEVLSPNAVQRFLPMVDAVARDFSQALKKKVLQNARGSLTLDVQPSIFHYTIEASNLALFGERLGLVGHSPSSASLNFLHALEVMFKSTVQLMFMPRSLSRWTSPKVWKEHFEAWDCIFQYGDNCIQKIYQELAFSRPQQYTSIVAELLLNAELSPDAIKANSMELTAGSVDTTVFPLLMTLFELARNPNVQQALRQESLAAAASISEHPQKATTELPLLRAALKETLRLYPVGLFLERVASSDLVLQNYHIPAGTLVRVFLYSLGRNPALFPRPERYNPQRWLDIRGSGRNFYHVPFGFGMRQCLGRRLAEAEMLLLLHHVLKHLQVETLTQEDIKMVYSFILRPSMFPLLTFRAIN

[2] = target: T2, Cytochrome P450 11B2, mitochondrial (Homo sapiens, UniProt P19099); experiment: Inhibition of human CYP11B2 expressed in hamster V79MZh cells; format: cell-based
T2 sequence (P19099 whole entry): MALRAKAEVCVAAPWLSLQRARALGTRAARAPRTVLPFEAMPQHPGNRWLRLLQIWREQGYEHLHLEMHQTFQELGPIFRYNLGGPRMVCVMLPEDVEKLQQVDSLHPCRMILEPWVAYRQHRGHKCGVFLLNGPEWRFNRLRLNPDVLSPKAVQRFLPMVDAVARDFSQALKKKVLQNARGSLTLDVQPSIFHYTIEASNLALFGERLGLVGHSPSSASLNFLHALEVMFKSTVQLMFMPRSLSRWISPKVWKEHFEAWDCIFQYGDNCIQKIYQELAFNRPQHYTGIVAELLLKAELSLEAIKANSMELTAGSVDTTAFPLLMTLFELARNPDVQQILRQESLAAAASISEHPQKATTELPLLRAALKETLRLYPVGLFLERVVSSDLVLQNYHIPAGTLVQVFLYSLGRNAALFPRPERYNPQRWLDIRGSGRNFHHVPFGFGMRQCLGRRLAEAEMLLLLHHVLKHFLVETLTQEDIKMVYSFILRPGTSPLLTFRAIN

[3] = target: T3, Steroid 17-alpha-hydroxylase/17,20 lyase (Homo sapiens, UniProt P05093); experiment: Inhibition of human CYP17 expressed in Escherichia coli coexpressing NADPH-P450 reductase
T3 sequence (P05093 whole entry): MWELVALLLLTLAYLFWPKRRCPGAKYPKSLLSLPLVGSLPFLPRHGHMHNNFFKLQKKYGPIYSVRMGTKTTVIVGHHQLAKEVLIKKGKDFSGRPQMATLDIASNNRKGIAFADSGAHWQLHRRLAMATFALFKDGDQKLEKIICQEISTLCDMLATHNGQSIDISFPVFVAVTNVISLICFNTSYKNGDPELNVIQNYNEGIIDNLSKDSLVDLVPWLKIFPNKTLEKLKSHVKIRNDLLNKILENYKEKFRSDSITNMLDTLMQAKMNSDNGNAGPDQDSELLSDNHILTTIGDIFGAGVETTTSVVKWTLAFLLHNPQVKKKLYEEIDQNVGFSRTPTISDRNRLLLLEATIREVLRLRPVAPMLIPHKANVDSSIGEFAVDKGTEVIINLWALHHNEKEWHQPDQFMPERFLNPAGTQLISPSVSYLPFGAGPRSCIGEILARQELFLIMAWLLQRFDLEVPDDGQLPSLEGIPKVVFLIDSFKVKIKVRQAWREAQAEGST

[4] = target: T4, Aromatase (Homo sapiens, UniProt P11511); experiment: Inhibition of CYP19 in human placental microsomes; set-up: species or system Placenta
T4 sequence (P11511 whole entry): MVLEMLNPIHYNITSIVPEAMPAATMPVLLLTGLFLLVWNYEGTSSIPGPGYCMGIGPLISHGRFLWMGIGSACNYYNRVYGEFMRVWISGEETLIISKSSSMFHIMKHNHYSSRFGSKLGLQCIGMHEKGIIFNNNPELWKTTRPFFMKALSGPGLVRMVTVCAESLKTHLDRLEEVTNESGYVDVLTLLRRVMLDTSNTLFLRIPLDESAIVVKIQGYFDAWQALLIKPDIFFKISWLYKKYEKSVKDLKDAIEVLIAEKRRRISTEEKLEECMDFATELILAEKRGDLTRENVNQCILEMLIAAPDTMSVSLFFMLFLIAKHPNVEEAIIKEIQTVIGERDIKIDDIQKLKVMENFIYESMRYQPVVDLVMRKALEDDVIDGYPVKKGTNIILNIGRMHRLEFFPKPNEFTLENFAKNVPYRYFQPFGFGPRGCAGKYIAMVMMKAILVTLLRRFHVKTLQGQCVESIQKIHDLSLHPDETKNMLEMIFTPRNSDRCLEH

[5] = target: Cytochrome P450 3A4 (Homo sapiens, UniProt P08684); experiment: Inhibition of CYP3A4 expressed in baculovirus infected insect microsomes; set-up: species or system Microsome
Cytochrome P450 3A4, sequence (P08684 whole entry): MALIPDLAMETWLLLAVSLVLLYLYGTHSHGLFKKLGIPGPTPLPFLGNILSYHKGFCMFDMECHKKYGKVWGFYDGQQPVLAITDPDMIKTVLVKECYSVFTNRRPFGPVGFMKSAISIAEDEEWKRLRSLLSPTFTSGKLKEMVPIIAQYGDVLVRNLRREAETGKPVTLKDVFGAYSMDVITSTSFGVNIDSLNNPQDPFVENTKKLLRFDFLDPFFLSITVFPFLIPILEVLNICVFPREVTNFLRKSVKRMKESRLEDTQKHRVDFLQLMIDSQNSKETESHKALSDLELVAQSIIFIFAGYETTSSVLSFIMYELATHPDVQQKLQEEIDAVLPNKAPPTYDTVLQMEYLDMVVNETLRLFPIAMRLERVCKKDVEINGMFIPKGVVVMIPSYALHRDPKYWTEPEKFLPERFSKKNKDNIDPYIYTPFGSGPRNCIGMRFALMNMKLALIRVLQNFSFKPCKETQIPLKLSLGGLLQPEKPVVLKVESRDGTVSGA

Row | pIC50 [1] | pIC50 [2] | pIC50 [3] | pIC50 [4] | pIC50 [5] | SMILES
1 | 6.54 | 6.04 | 6.65 | 5.55 | – | Nc1cccc(-c2ccc(Cc3ccncc3)cc2)c1
2 | – | – | 6.11 | – | – | CC(C)C(c1ccncc1)c1ccc(-c2cccc(O)c2)cc1 (stereo unspecified)
3 | 5.85 | 6.02 | 7.28 | 5.61 | 5.12 | Oc1ccc(-c2ccc(Cc3ccncc3)cc2)cc1O
4 | 6.47 | 6.58 | – | 6.18 | 6.27 | Oc1cccc(-c2ccc(Cc3ccncc3)cc2)c1
5 | – | – | 6.72 | – | – | CCC(c1ccncc1)c1ccc(-c2cccc(O)c2)cc1 (stereo unspecified)
6 | 5.51 | 5.46 | 7.25 | 4.92 | 6.14 | CC(C)=C(c1ccncc1)c1ccc(-c2cccc(O)c2)cc1
7 | 6.45 | 6.96 | 6.73 | 5.78 | 6.05 | Oc1ccc(-c2ccc(Cc3ccncc3)cc2)cc1F
8 | 5.14 | 5.42 | 7.42 | 5.30 | 5.88 | CC(C)=C(c1ccncc1)c1ccc(-c2cccc(N)c2)cc1
9 | 6.30 | 6.43 | 6.47 | 4.61 | – | Nc1ccc(-c2ccc(Cc3ccncc3)cc2)cc1N

The next lines start with the compound.

Row | SMILES | pIC50 [1] | pIC50 [2] | pIC50 [3] | pIC50 [4] | pIC50 [5]
10 | CC(C)=C(c1ccncc1)c1ccc(-c2ccc(N)c(N)c2)cc1 | 5.14 | 5.95 | 7.12 | 4.31 | 5.75
11 | CC(C)=C(c1ccncc1)c1ccc(-c2ccc3cc(O)ccc3c2)cc1 | 5.30 | 4.31 | 7.21 | 4.31 | –
12 | CC(C)=C(c1ccncc1)c1ccc(-c2ccc(O)c(O)c2)cc1 | 4.43 | 6.01 | 7.43 | 5.02 | 6.33
13 | CCC(c1ccncc1)c1ccc(-c2ccc(O)c(F)c2)cc1 (stereo unspecified) | – | – | 6.46 | – | –
14 | CC(C)=C(c1ccncc1)c1ccc(-c2ccc(O)c(F)c2)cc1 | 5.70 | 5.73 | 7.12 | 5.24 | 4.75
15 | CC(C)=C(c1ccncc1)c1ccc(-c2cccc(NC(=O)OC(C)(C)C)c2)cc1 | – | – | 5.84 | – | –
16 | CC(C)=C(c1ccncc1)c1ccc(-c2ccc(NC(=O)OC(C)(C)C)cc2)cc1 | – | – | 6.31 | – | –
17 | CC(C)=C(c1ccncc1)c1ccc(-c2ccc(NC(=O)OC(C)(C)C)c(F)c2)cc1 | – | – | 6.07 | – | –
18 | CC(C)=C(c1ccncc1)c1ccc(-c2ccc(NC(=O)OC(C)(C)C)c(NC(=O)OC(C)(C)C)c2)cc1 | – | – | < 5.00 | – | –
19 | C[C@]12CC[C@H](O)CC1=CC[C@@H]1[C@@H]2CC[C@]2(C)C(c3cccnc3)=CC[C@@H]12 [ABIRATERONE] | 5.79 | 5.76 | – | < 4.30 | –
